Several values for one entry are separate records, joined by “and”; a condition that tells them apart may be missing. Identical values can stand only once.
Columns and labels:
neonatal mouse calvariae = assay: Neonatal mouse (murine) calvarial assay, 45Ca release; format: cell-based; conditions: for 45Ca release, Factor alone (Table II): IL-1 5 × 10^−10M, TNF 2 × 10^−10M, Lymphotoxin 5 × 10^−9M, PTH 4 ng/ml
Protocol: The assay was performed as described by Gowen et al. (1983). Timed pregnant mice were injected with ^45Ca 2 days before parturition. Half-calvaria were removed from the 1-2-day-old pups and preincubated for 24 h in BGJb medium at 37° C. in a humidified atmosphere of 5% CO2 before transfer to fresh media with or without test substances for 48 h. The bones were incubated for a further 72 h and media and bones collected. Bone-resorbing activity was expressed as the percentage of the total ^45Ca released into the medium.

C433 cells = assay: Production of osteoclast-stimulating activity by C433 cells (conditioned medium bioassayed for TRAP in avian osteoclasts); format: cell-based, human; conditions: flurbiprofen 10^−5 M; indomethacin 10^−6 M; nordihydroguaiaretic acid 10^−6, 10^−5 or 10^−4 M
Protocol: FIG. 3A, FIG. 3B, FIG. 3C and FIG. 3D. Chemical characterization of activity. FIG. 3A. C433-conditioned medium was treated with ultraviolet-light (UV) for 24 h or placed in a boiling water bath (100° C.) for 15 min and bioassayed. FIG. 3B. amino peptidase M (A), carboxypeptidase (C), or Pronase-CB (P) were incubated in the presence of C433-conditioned medium for 12 h at 37° C. FIG. 3C. […] The resultant conditioned medium was bioassayed for activity. FIG. 3D. […] Conditioned medium was bioassayed for induction of TRAP activity in avian osteoclasts.
C433 cells were grown in 10% fetal bovine serum (Whittaker, Walkersville, Md.) 50% RPMI, 50% McCoys (Flow, McLean, Va.) until a density of 10^4 cells/ml was obtained, at which time the cells were harvested, washed, and placed in serum-free DMEM plus 10^−8 M, 1,25-(OH)2D3 for 48 h before harvest of conditioned medium. […] This conditioned medium was applied to a prewetted C18 Sep-Pak (Millipore, Waters, Milford, Mass.), and bound material was extracted using ethyl acetate. This material was dried under nitrogen and resuspended in water, it acetic acid and analyzed by high pressure measure liquid chromatography (HPLC) (Waters, Milford, Mass.) applied to a C8 semipreparative 25 cm×10 mm reverse phase column (Keystone Scientific, Inc., Bellefonte, Pa.) at 2 ml/min. The gradient was 0-100% methanol, 1% acetic acid over 60 min with 6-ml fractions collected. The fractions were dried under nitrogen, and those fractions to be assayed for osteoclast stimulating activity were stabilized with 20 μl of 10% bovine serum albumin. Fractions to be used for gas chromatography-mass spectrometric analysis were prepared for derivatization.

[1] = test system: isolated avian osteoclasts; assay: TRAP activity in isolated avian osteoclasts; format: cell-based, Gallus domesticus; conditions: 10^−8 M stimulates suboptimally
Protocol: Avian osteoclasts were isolated from medullary bone of laying White Leghorn hens Gallus domesticus (Pioneer Animal Supply, Kingswheel, Ohio) as described previously by Zambonin-Zallone and Teti (1981). In brief, bone marrow suspensions from the medullary bone of femora were filtered through Nytex cloth (110 μm, t'etko, Elmsford, N.Y.), centrifuged for 5 min at 1200 rpm, and the cell pellet resuspended in 0.2% NaCl for 3 min to lyse erythrocytes. After layering the cells on 100% fetal bovine serum for 1 h, sedimented cells were further filtered through Nytex filters (55 μm). Cells were harvested, resuspended in α-minimal Eagle's medium (GIBCO) containing 10 fetal bovine serum, with penicillin (100 units/ml), streptomycin (100 μg/ml), and Ara-C, to inhibit proliferation of nonosteoclastic cells. Cells were plated in 24- or 48-well plates (Costar, Cambridge, Mass.) at 1×10^4 cells/well and incubated at 37° C. in 10% CO2 humidified air for 48 h, after which they were washed to remove nonadherent cells. When matured osteoclasts were observed experiments were begun and terminated within 48 h.
Osteoclast TRAP activity was measured using fluorescence spectroscopy as described by Chambers et al. (1987) with minor modifications. In brief, media from osteoclast cultures were harvested and stored at −70° C. until ready for assay.
The cells were washed with phosphate-buffered saline and harvested in 0.5 ml of Triton X-100 (0.05%, w/v). Aliquots of media or lysate 30 μl) were incubated with 170 μl of 2 mM methylumbelliferyl phosphate, pH 5.0, in 0.48 M acetate buffer (0.48 M sodium acetate, 0.48 M acetic acid, pH 5.0) and 30 mM tartaric acid. Samples were incubated for 30 min at 37° C. and the reaction terminated with 100 μl of stop solution containing 50 mM glycine, 50 mM EDTA, pH 10.4. Fluorescence was measured at excitation 360 nm and emission 448 nm using a fluorimeter (Fluoroskan, Flow Instruments). Enzyme activity was expressed as micromoles of methylumbelliferyl phosphate hydrolyzed/min/μg of protein and the protein content measured by the technique of Lowry et al. (1951).

isolated rat osteoclasts = assay: Disaggregated rat osteoclast pit formation assay on sperm whale dentine; format: cell-based
Protocol: Quantitation of the effects of isolated osteoclasts on calcified matrices was determined using minor modifications of the disaggregated osteoclast resorption assay as described by Boyde et al. (1984). Sperm whale dentine (0.25×7×7 mm) was prepared using a Buehler low speed diamond saw (Buehler, Lake Bluff, Ill.) followed by sonication (15 min) in several changes of distilled water. Slices were sterilized using ultraviolet light.
Neonatal Sprague-Dawley rats (2-3 days) were sacrificed by decapitation, the femurs and tibias were removed, scraped free of adherent tissue, and trimmed free of the epiphyses. The bones from one litter were combined and quickly minced using a scalpel blade in 2 ml of 199 medium and then vigorously mixed with a pipette in an 8-ml tube, allowed to settle for 10 s, and then 100 μl of the suspension was added to each well for a total of 16 wells in a 48-well microtiter plate containing sperm whale dentine (approximately four neonates are used per 16 wells). The cells were incubated at 37° C. for 30 min at which time the dentine was removed, washed in media, and placed in a fresh 48-well plate containing 250 μl of test medium.
Osteoclasts were stained for TRAP and counted and then pit numbers were counted following toluidine blue (0.1% w/v) staining by light microscopy. The plan area of matrix resorbed was quantitated using a computer-assisted morphometric program on a Bioquant System IV analysis system (R & M Biometrics, Nashville, Tenn.).
Quantitation of the effects of isolated neonatal rat osteoclasts on calcified matrices was determined using minor modifications of the disaggregated osteoclast resorption assay as described by Boyde et al (1984). Briefly rat osteoclasts isolated as described by Chambers et al. (1983) were dispersed on prewetted (AMEM plus 5% FBS) slices of sperm whale dentine. Cultures were performed in 48 well-microtiter plates in humidified air (10% CO2) at 37° C. in αMEM medium (one slice/well in 200 μl medium). Numbers of osteoclasts and resorption lacunae were quantitated as described above for the avian osteoclasts.

[2] = 1,25D3 10^−10M + MK886 2.5 μg/ml
[3] = IL-1 1 × 10^−10M + MK886 2.5 μg/ml

In the case of CCCCC/C=C\C[C@@H](O)/C=C/C=C/C=C\[C@@H](O)CCCC(=O)O [LTB4], the “stimulation of bone resorption in neonatal mouse calvariae (in words)” value (neonatal mouse calvariae) is reported as “found to stimulate osteoclastic bone resorption” and the “concentration showing statistically significant resorption stimulation” value (neonatal mouse calvariae; dose response, FIG. 8C) is reported as 10^−8 to 10^−6 M.

In the case of CC(C(=O)O)c1ccc(-c2ccccc2)c(F)c1 (centres unmarked) [Flurbiprofen, flurbiprofen], the “effect on production of C433 activity” value (C433 cells) is reported as “no significant effects”.

For COc1ccc2c(c1)c(CC(=O)O)c(C)n2C(=O)c1ccc(Cl)cc1 [indomethacin], the “effect on production of C433 activity” value (C433 cells) was “no significant effects”.

CCCCC/C=C\C\C=C/C=C/C=C/[C@@H](SC[C@H](N)C(=O)NCC(=O)O)[C@@H](O)CCCC(=O)O [LTD4, leukotriene D4] was tested, and the “concentration of optimal stimulation of TRAP activity” value [1] was 10^−10 M.

With “IL-1: interleukin-1, bone resorbing factor” the “45Ca release, factor alone (Table IV)” value (neonatal mouse calvariae; 1,25D3 10^−10M, IL-1 1 × 10^−10M) was 38.9%, the “45Ca release, Factor alone (Table II)” value (neonatal mouse calvariae; 1,25D3 10^−10M) was 27.7% and 31.2% and the “45Ca release, Factor alone (Table VII)” value (neonatal mouse calvariae; IL-1β 5 × 10^−10M, TNF 5 × 10^−10M, LPS WR14 50 ng/ml) was 32.0%.

For CCCCC/C=C\C\C=C/C=C/C=C/[C@@H](SC[C@H](N)C(=O)O)[C@@H](O)CCCC(=O)O [LTE4, leukotriene E4], the “stimulation of pit formation” value (isolated rat osteoclasts; 10^−10 M) was “stimulated”.

For CC(C)c1ccc2c(c1)c(SC(C)(C)C)c(CC(C)(C)C(=O)O)n2Cc1ccc(Cl)cc1 [MK886], the “inhibition of 1,25(OH)2 vitamin D3-induced bone resorption (in words)” value (neonatal mouse calvariae; 1,25(OH)2 vitamin D3 as factor) was “significantly inhibited”, the “45Ca release, factor + MK886” value (neonatal mouse calvariae; [2]) was 32.1% and the “% Inhibition” value (neonatal mouse calvariae; [2]) was 23.4%. The “% Inhibition” value (neonatal mouse calvariae; AAY4 LPS 25 μg/ml + MK886) was 20.9%, the “Ca^45 Release, LPS + MK886” value (neonatal mouse calvariae; AAY4 LPS 25 μg/ml + MK886 (concentration not given)) was 22.6% and the “inhibition of LPS-induced bone resorption (in words)” value (neonatal mouse calvariae; AaY4 LPS and/or WR14 LPS) was “only mildly inhibited”. For the same molecule, the “45Ca release, factor + MK886” value (neonatal mouse calvariae; [3]) was 34.9%, the “% Inhibition” value (neonatal mouse calvariae; [3]) was 23.0% and the “inhibition of IL-1-induced bone resorption (in words)” value (neonatal mouse calvariae; IL-1 as factor) was “significant inhibition of Interleukin-1 induced bone resorption was not noted”. The “45Ca release, MK886 alone” value (neonatal mouse calvariae; MK886 2.5 μg/ml, no factor) was 9.6% and 14.2%, the “% Inhibition” value (neonatal mouse calvariae; WR14 LPS 50 ng/ml + MK886) was 8.2% and the “Ca^45 Release, LPS + MK886” value (neonatal mouse calvariae; WR14 LPS 50 ng/ml + MK886 (concentration not given)) was 32.8%. The “inhibition of PTH and PTHrP-induced bone resorption” value (isolated rat osteoclasts; NDGA 10^−6M, MK886 1 μg/ml, ZM 230,487 10 ng/ml, 20 hours) was “inhibition of the bone resorption was seen” and the “order of inhibitory effectiveness” value (isolated rat osteoclasts; PTH and PTHrP-induced bone resorption, NDGA 10^−6M, MK886 1 μg/ml, ZM 230,487 10 ng/ml) was “ZM230487>MK886>NDGA”.

B1: PTH: parathyroid hormone (protein, UniProt P01270 32-115, looked up)
Parathyroid hormone: SVSEIQLMHNLGKHLNSMERVEWLRKKLQDVHNFVALGAPLAPRDAGSQRPRKKEDNVLVESHEKSLGEADKADVNVLTKAKSQ
modifications: Parathyroid hormone
B1 was tested, and the “45Ca release, Factor alone (Table II)” value (neonatal mouse calvariae; 1,25D3 10^−10M) was 37.0% and 39.9% and 29.8% and the “% Total Calcium Released, PTH alone (Table VI)” value (neonatal mouse calvariae; PTH 10 ng/ml) was 30.5 ± 2.4%.

B2: Lymphotoxin: bone resorbing factor (protein, UniProt P01374 35-205, looked up)
Lymphotoxin-alpha: LPGVGLTPSAAQTARQHPKMHLAHSTLKPAAHLIGDPSKQNSLLWRANTDRAFLQDGFSLSNNSLLVPTSGIYFVYSQVVFSGKAYSPKATSSPLYLAHEVQLFSSQYPFHVPLLSSQKMVYPGLQEPWLHSMYHGAAFQLTQGDQLSTHTDGIPHLVLSPSTVFFGAFAL
B2 was tested, and the “45Ca release, Factor alone (Table II)” value (neonatal mouse calvariae; 1,25D3 10^−10M) was 35.0% and 42.8%.

— US6455541B1, “Suppression, by 5-lipoxygenase inhibitors, of bone resorption” (Board of Regents, The University of Texas System, priority 1994, dated 2002)
